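Where inhibition never reached the appropriate level, the endpoint shown equals the highest concentration tested. Otherwise, values were interpolated linearly from a five-concentration, 48-hour dose response in 96-well plates. GI50: concentration for 50% inhibition of growth.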 The source made the active and inactive calls. No stated cut-off is given here; in the data, active = GI50 up to about 1.1 µM and inactive = higher.
Key:
Experiment in all cases: NCI anticancer screen, dose series, 48 h
SR = test system: SR
UACC-62 = test system: UACC-62
M14 = test system: M14
UO-31 = test system: UO-31
COLO 205 = test system: COLO 205
786-0 = test system: 786-0
BT-549 = test system: BT-549
SW-620 = test system: SW-620
MDA-MB-231 = test system: MDA-MB-231
RXF 393 = test system: RXF 393
OVCAR-5 = test system: OVCAR-5
HCT-15 = test system: HCT-15
SNB-75 = test system: SNB-75
MDA-MB-435 = test system: MDA-MB-435
HOP-62 = test system: HOP-62
HCT-116 = test system: HCT-116
MDA-N = test system: MDA-N
HT-29 = test system: HT-29
NCI-H226 = test system: NCI-H226
SK-OV-3 = test system: SK-OV-3

Structure (SMILES) | GI50 (SR) | GI50 (UACC-62) | GI50 (M14) | GI50 (UO-31) | GI50 (COLO 205) | GI50 (786-0) | GI50 (BT-549) | GI50 (SW-620) | GI50 (MDA-MB-231) | GI50 (RXF 393) | GI50 (OVCAR-5) | GI50 (HCT-15) | GI50 (SNB-75) | GI50 (MDA-MB-435) | GI50 (HOP-62) | GI50 (HCT-116) | GI50 (MDA-N) | GI50 (HT-29) | GI50 (NCI-H226) | GI50 (SK-OV-3)
Nc1nc(Cl)cc(NCC2(CO)CC(c3ccccc3)C2)n1 (stereo not given) | 7.59 µM (inactive) | 32.4 µM (inactive) | 34.6 µM (inactive) | 16.6 µM (inactive) | 29.1 µM (inactive) | > 100 µM (inactive) | 29.3 µM (inactive) | > 100 µM (inactive) | 26.4 µM (inactive) | 58.9 µM (inactive) | > 100 µM (inactive) | 53 µM | 18.1 µM (inactive) | 29.9 µM (inactive) | > 100 µM (inactive) | 11.4 µM (inactive) | 31 µM (inactive) | 30 µM (inactive) | 37.7 µM (inactive) | 54.2 µM (inactive)
C/C(=N\NC(=O)N/N=C(\C)c1ccccn1)c1ccccn1 | 0.394 µM (active) | 40.9 µM (inactive) | 0.205 µM (active) | 22.8 µM (inactive) | 0.069 µM (active) | 2.66 µM (inactive) | 1.15 µM (inactive) | 0.726 µM (active) | 0.333 µM (active) | 28.1 µM (inactive) | > 52.6 µM (inactive) | 37.8 µM | > 100 µM (inactive) | 0.0526 µM (active) | 0.512 µM (active) | 0.336 µM (active) | 0.114 µM (active) | < 0.01 µM (active) | 31 µM (inactive) | > 100 µM (inactive)
COc1ccc2c(c1)C(N)=C(c1ccccc1OC)C2=O | 29.9 µM (inactive) | 77.8 µM (inactive) | > 100 µM (inactive) | 89.7 µM (inactive) | > 100 µM (inactive) | > 100 µM (inactive) | > 100 µM (inactive) | > 100 µM (inactive) | > 100 µM (inactive) | 25.1 µM (inactive) | > 100 µM (inactive) | > 100 µM | 64.3 µM (inactive) | 53.6 µM (inactive) | > 100 µM (inactive) | > 100 µM (inactive) | > 100 µM (inactive) | > 100 µM (inactive) | > 100 µM (inactive) | > 100 µM (inactive)
CC(C(=O)O)c1ccc(-c2ccccc2)c(F)c1 (stereo not given) [FLURBIPROFEN] | > 100 µM (inactive) | > 100 µM (inactive) | > 100 µM (inactive) | > 100 µM (inactive) | > 100 µM (inactive) | > 100 µM (inactive) | > 100 µM (inactive) | > 100 µM (inactive) | > 100 µM (inactive) | > 100 µM (inactive) | > 100 µM (inactive) | > 100 µM | > 100 µM (inactive) | > 100 µM (inactive) | > 10 µM (inactive) | > 100 µM (inactive) | > 100 µM (inactive) | > 100 µM (inactive) | > 100 µM (inactive) | > 100 µM (inactive)
Nc1ccc(S(=O)(=O)Nc2nccs2)cc1 [SULFATHIAZOLE] | > 100 µM (inactive) | > 100 µM (inactive) | > 100 µM (inactive) | > 100 µM (inactive) | > 100 µM (inactive) | > 100 µM (inactive) | > 100 µM (inactive) | > 100 µM (inactive) | > 100 µM (inactive) | > 100 µM (inactive) | > 100 µM (inactive) | > 100 µM | 17 µM (inactive) | > 100 µM (inactive) | > 100 µM (inactive) | > 100 µM (inactive) | > 100 µM (inactive) | > 100 µM (inactive) | > 100 µM (inactive) | > 100 µM (inactive)
